From patent US6989389B2, “Aryl ether substituted imidazoquinolines” (3M Innovative Properties Co., priority 2000, dated 2006)
Structures can show the parent of a compound that is named as a salt. Where two headings read alike, the source gives them in different places.

Tested on: Peripheral blood mononuclear cells (PBMC)
Assay: Cytokine Induction in Human Cells (in vitro human blood cell system, IFN and TNF secreted into culture media)
Type: cell-based
Parameters: key to Lowest Effective Concentration (μM) Tumor Necrosis Factor / Lowest Effective Concentration (μM) Interferon: *: no induction was seen at any of the tested concentrations
Conditions: 18 to 24 hours, tested 30-0.014 μM
Source text: An in vitro human blood cell system is used to assess cytokine induction. Activity is based on the measurement of interferon and tumor necrosis factor (α) (IFN and TNF, respectively) secreted into culture media as described by Testerman et. al. In “Cytokine Induction by the Immunomodulators Imiquimod and S-27609”, Journal of Leukocyte Biology, 58, 365-372 (September, 1995).
Whole blood from healthy human donors is collected by venipuncture into EDTA vacutainer tubes. Peripheral blood mononuclear cells (PBMC) are separated from whole blood by density gradient centrifugation using Histopaque®-1077. Blood is diluted 1:1 with Dulbecco's Phosphate Buffered Saline (DPBS) or Hank's Balanced Salts Solution (HBSS). The PBMC layer is collected and washed twice with DPBS or HBSS and resuspended at 4×10^6 cells/mL in RPMI complete. The PBMC suspension is added to 48 well flat bottom sterile tissue culture plates (Costar, Cambridge, Mass. or Becton Dickinson Labware, Lincoln Park, N.J.) containing an equal volume of RPMI complete media containing test compound.
The compounds are solubilized in dimethyl sulfoxide (DMSO). The DMSO concentration should not exceed a final concentration of 1% for addition to the culture wells. The compounds are generally tested at concentrations ranging from 30-0.014 μM.
The solution of test compound is added at 60 μM to the first well containing RPMI complete and serial 3 fold dilutions are made in the wells. The PBMC suspension is then added to the wells in an equal volume, bringing the test compound concentrations to the desired range (30-0.014 μM). The final concentration of PBMC suspension is 2×10^6 cells/mL. The plates are covered with sterile plastic lids, mixed gently and then incubated for 18 to 24 hours at 37° C. in a 5% carbon dioxide atmosphere.
Following incubation the plates are centrifuged for 10 minutes at 1000 rpm (˜200×g) at 4° C. The cell-free culture supernatant is removed with a sterile polypropylene pipet and transferred to sterile polypropylene tubes. Samples are maintained at −30 to −70° C. until analysis. The samples are analyzed for interferon (α) by ELISA and for tumor necrosis factor (α) by ELISA or IGEN Assay.
Interferon (α) concentration is determined by ELISA using a Human Multi-Species kit from PBL Biomedical Laboratories, New Brunswick, N.J. Results are expressed in pg/mL.
Tumor necrosis factor (α) (TNF) concentration is determined using ELISA kits available from Biosource International, Camarillo, Calif. Alternately, the TNF concentration can be determined by Origen® M-Series Immunoassay and read on an IGEN M-8 analyzer from IGEN International, Gaithersburg, Md. The immunoassay uses a human TNF capture and detection antibody pair from Biosource International, Camarillo, Calif. Results are expressed in pg/mL.
The table below lists the lowest concentration found to induce interferon and the lowest concentration found to induce tumor necrosis factor for each compound.

[1] = Homo sapiens, PBMC, lowest concentration found to induce interferon (α), ELISA, read-out: Lowest Effective Concentration (μM) Interferon
[2] = lowest concentration found to induce tumor necrosis factor (α), ELISA or IGEN assay
[3] = lowest concentration found to induce interferon (α), ELISA
[4] = Homo sapiens, PBMC, lowest concentration found to induce tumor necrosis factor (α), ELISA or IGEN assay, read-out: Lowest Effective Concentration (μM) Tumor Necrosis Factor

Row | Structure (SMILES) | minimal effective concentration [1] [µM] | Lowest Effective Concentration (μM) Tumor Necrosis Factor [2] | further results
1 | CC(C)C(COCc1ccccc1)n1cnc2c(N)nc3ccccc3c21 (centres unmarked) [Example 59] | 1.11 | * | –
2 | Cc1ccc(COC(C)(C)Cn2cnc3c(N)nc4ccccc4c32)cc1 [Example 36] | – | * | Lowest Effective Concentration (μM) Interferon [3]: *
3 | Nc1nc2ccccc2c2c1ncn2COCCOc1ccc([N+](=O)[O-])cc1 [Example 83] | 0.37 | * | –
4 | CCC(COCc1ccccc1)n1cnc2c(N)nc3ccccc3c21 (centres unmarked) [Example 24] | 0.12 | * | –
5 | CC(C)C(COCc1cccc(C#N)c1)n1cnc2c(N)nc3ccccc3c21 (centres unmarked) [Example 65] | 1.11 | * | –
6 | CC(COCc1ccc(C(F)(F)F)cc1)n1cnc2c(N)nc3ccccc3c21 (centres unmarked) [Example 74] | 0.37 | * | –
7 | N#Cc1cccc(COCCOCn2cnc3c(N)nc4ccccc4c32)c1 [Example 88] | 0.37 | – | minimal effective concentration [4]: 30 µM
8 | CN(C)c1cccc(CCCOCCn2cnc3c(N)nc4ccccc4c32)c1 [Example 15, 1-(2-{3-[3-(Dimethylamino)phenyl]propoxy}ethyl)-1H-imidazo[4,5-c]quinolin-4-amine dihydrochloride] | 0.12 | * | –
9 | C#CCOCCn1c(CCOC)nc2c(N)nc3ccccc3c21 [Example 144, 2-(2-Methoxyethyl)-1-[2-(prop-2-ynyloxy)ethyl]-1H-imidazo[4,5-c]quinolin-4-amine] | 0.01 | – | minimal effective concentration [4]: 0.04 µM
10 | Cc1cccc(COC(C)(C)Cn2cnc3c(N)nc4ccccc4c32)c1 [Example 37] | – | * | Lowest Effective Concentration (μM) Interferon [3]: *
11 | CCCCc1nc2c(N)nc3c(c2n1CCOCc1ccc(C(C)(C)C)cc1)CCCC3 [Example 95] | 1.11 | * | –
12 | Cc1ccc(COCC(C)n2cnc3c(N)nc4ccccc4c32)cc1 (centres unmarked) [Example 72] | 1.11 | * | –
13 | CCC(COCc1cccc(OC(F)(F)F)c1)n1cnc2c(N)nc3ccccc3c21 (centres unmarked) [Example 45] | 0.37 | * | –
14 | Cc1ccc([N+](=O)[O-])c(OCC(C(C)C)n2cnc3c(N)nc4ccccc4c32)c1 (centres unmarked) [Example 55] | – | * | Lowest Effective Concentration (μM) Interferon [3]: *
15 | CCOCc1nc2c(N)nc3ccccc3c2n1CCOCCCc1ccccc1 [Example 16, 2-(Ethoxymethyl)-1-[2-(3-phenylpropoxy)ethyl]-1H-imidazo[4,5-c]quinolin-4-amine Hydrochloride] | 0.01 | – | minimal effective concentration [4]: 0.37 µM
16 | CC[C@@H](COCc1ccc(C#N)cc1)n1cnc2c(N)nc3ccccc3c21 [Example 143, 4-({[(2S)-2-(4-Amino-1H-imidazo[4,5-c]quinolin-1-yl)butyl]oxy}methyl)benzonitrile] | 1.11 | – | minimal effective concentration [4]: 3.33 µM
17 | Nc1nc2ccccc2c2c1ncn2CCOCCCc1ccc(-n2cccc2)cc1 [Example 11, 1-(2-{3-[4-(1H-1-Pyrrolyl)phenyl]propoxy}ethyl)-1H-imidazo[4,5-c]quinolin-4-amine trifluoroacetate] | 1.11 | * | –
18 | CCC(COCc1ccc(C#N)cc1)n1cnc2c(N)nc3ccccc3c21 (centres unmarked) [Example 46] | – | – | minimal effective concentration (lowest concentration found to induce interferon (α), ELISA, read-out: Lowest Effective Concentration (μM) Interferon): 0.01 µM; minimal effective concentration (lowest concentration found to induce tumor necrosis factor (α), ELISA or IGEN assay, read-out: Lowest Effective Concentration (μM) Tumor Necrosis Factor): 3.33 µM
19 | Cc1ccc(COC(C)Cn2cnc3c(N)nc4ccccc4c32)cc1 (centres unmarked) [Example 50] | 3.33 | * | –

Row | Structure (SMILES) | minimal effective concentration [1] [µM] | Lowest Effective Concentration (μM) Tumor Necrosis Factor [2] | further results
20 | Nc1nc2ccccc2c2c1ncn2CCOCCCc1ccccc1C(=O)O [Example 13, 2-{3-[2-(4-Amino-1H-imidazo[4,5-c]quinolin-1-yl)ethoxy]propyl}benzoic acid trifluoroacetate] | 10 | – | minimal effective concentration [4]: 10 µM
21 | CC(Cn1cnc2c(N)nc3ccccc3c21)Oc1ccccc1[N+](=O)[O-] (centres unmarked) [Example 51] | 0.37 | * | –
22 | C[C@@H](COCc1cccc(Cl)c1)Cn1cnc2c(N)nc3ccccc3c21 [Example 112] | – | * | Lowest Effective Concentration (μM) Interferon [3]: *
23 | CCC(COCc1cccc(C(F)(F)F)c1)n1cnc2c(N)nc3ccccc3c21 (centres unmarked) [Example 26] | 0.12 | * | –
24 | CCC(COCc1ccccc1)n1c(C)nc2c(N)nc3ccccc3c21 (centres unmarked) [Example 81] | 1.11 | * | –
25 | C[C@@H](COCc1ccc(C(C)(C)C)cc1)Cn1cnc2c(N)nc3ccccc3c21 [Example 111] | 3.33 | * | –
26 | CC(C)C(COc1ccc([N+](=O)[O-])cc1)n1cnc2c(N)nc3ccccc3c21 (centres unmarked) [Example 58] | 3.33 | * | –
27 | CC(COCc1ccccc1)n1cnc2c(N)nc3ccccc3c21 (centres unmarked) [Example 70] | 0.37 | * | –
28 | N#Cc1ccc(COCCOCn2cnc3c(N)nc4ccccc4c32)cc1 [Example 87] | 1.11 | * | –
29 | CC(Cn1cnc2c(N)nc3ccccc3c21)Oc1ccc(C(C)(C)CC(C)(C)C)cc1 (centres unmarked) [Example 100] | – | * | Lowest Effective Concentration (μM) Interferon [3]: *
30 | CC(Cn1cnc2c(N)nc3ccccc3c21)Oc1ccc(-n2ccnc2)cc1 (centres unmarked) [Example 98] | 0.37 | * | –
31 | CC(C)(Cn1cnc2c(N)nc3ccccc3c21)OCc1ccccc1 [Example 33] | – | * | Lowest Effective Concentration (μM) Interferon [3]: *
32 | CCc1nc2c(N)nc3ccccc3c2n1C(CC)COCc1ccccc1 (centres unmarked) [Example 82] | – | * | Lowest Effective Concentration (μM) Interferon [3]: *
33 | CCC(COCc1ccc(C)cc1)n1cnc2c(N)nc3ccccc3c21 (centres unmarked) [Example 49] | 0.04 | * | –
34 | CC(C)c1ccccc1C#CCOCCn1cnc2c(N)nc3ccccc3c21 [Example 7, 1-(2-{[3-(2-Isopropylphenyl)-2-propynyl]oxy}ethyl)-1H-imidazo[4,5-c]quinolin-4-amine Hydrochloride] | 1.11 | – | minimal effective concentration [4]: 0.37 µM
35 | Cc1nc2c(N)nc3ccccc3c2n1CCOCC#Cc1ccccc1 [Example 118, 2-Methyl-1-{2-[(3-phenylprop-2-ynyl)oxy]ethyl}-1H-imidazo[4,5-c]quinolin-4-amine] | 0.01 | – | minimal effective concentration [4]: 0.04 µM
36 | CCC(COCc1ccccc1Cl)n1cnc2c(N)nc3ccccc3c21 (centres unmarked) [Example 40] | 0.12 | * | –
37 | CN(C)c1ccc(CCCOCCn2cnc3c(N)nc4ccccc4c32)cc1 [Example 114, 1-(2-{3-[4-(Dimethylamino)phenyl]propoxy}ethyl)-1H-imidazo[4,5-c]quinolin-4-amine] | 0.12 | – | minimal effective concentration [4]: 0.37 µM
